For data set [1], the system named is NCI-H460 (human lung cancer cell line). The data set can be described thus: Anti-cell activity (MTT) against human tumor cell line NCI-H460. The conditions noted are these: 72 h, NCI-H460, cultured three days, read-out: NCI-H460 (GI50 value, ng/mL). The class given is cell-based. As for the experimental part:
(§1) Three types of human tumor cell lines (all of the cells were obtained from American Type Culture Collection) were seeded on 96-well microplates as follows.
(§2) NCI-H460 (human lung cancer cell line): 5.0×10^2 cells/190 μL/well HCT-15 (P glycoprotein (P-gp) expressing human colon cancer cell line, J. Natl. Cancer Inst., 2001, 93:1234-1245): 1.0×10^3 cells/190 μL/well HCT116 (human colon cancer cell line): 1.0×10^3 cells/190 μL/well On the next day, each test compound was dissolved in 100% dimethyl sulfoxide (DMSO) at a concentration of 10 mg/mL. This solution was diluted with 0.01% Cremophor EL-PBS(−) (Cremophor EL: Sigma Chemical Co., St. Louis, Mo., USA, PBS: Invitrogen Corp., Carlsbad, Calif., USA), and 10 μL of the diluted solution was added to each well (final concentration: 100 to 0.000381 ng/mL). The cells were cultured for three days, and then […] of a 5 mg/mL solution of 3-(4,5-dimethylthiazol-2-yl)-2,5-diphenyl-2H-tetrazolium bromide (MTT, Sigma Chemical Co.) was added to each well. The cells were further cultured for 4 hours, and then the medium was removed by centrifugation. By adding 150 μL of DMSO to each well, the produced formazan product was dissolved. The absorbance of the solution was measured at 540 nm. The drug concentration suppressing cell proliferation of the drug addition group to 50% of the cell proliferation of the drug free group (GI50 value, ng/mL) was calculated, and used as an index of anti-cell activity.

Data set [2] has as its system B16 melanoma BL6. Description: Antitumor effect in mice subcutaneously transplanted with B16 melanoma BL6. The conditions noted are these: for Therapeutic index: MTD/MED; for Effective dose range: range from MED to MTD, antitumor effect of 58% or more considered effective. The data set is classed as in vivo, Mice (C57BL/6). The source says:
(§3) Mice (C57BL/6, Charles River Japan) were subcutaneously transplanted with B16 melanoma BL6 (Cancer Res., Poste, G., Fidler, I. J. et al., 1980, 40:1636; Bioorg. Med. Chem. Lett., Takeda, Y. et al., 2003, 13:185-190), or M5076 (obtained from Japanese Foundation for Cancer Research), which is a histiocytoma expressing P-gp. Four days after the transplantation in the case of B16 melanoma BL6, or 8 to 10 days after the transplantation in the case of M5076, each test compound suspended in a 0.5% aqueous solution of carboxymethylcellulose sodium, or dissolved in EtOH:Tween 80:5% glucose=5:5:90 (v/v %) was orally (po) or intravenously (iv) administered to the mice. Ten days after the administration in the case of B16 melanoma BL6, or 8 to 10 days after the administration in the case of M5076, the mice were dissected, and tumor weights were measured. The antitumor effect was calculated in accordance with the following equation.
(§4) [1−(Average tumor weight of compound administration group/average tumor weight of solvent administration group)]×100
(§5) An antitumor effect of 58% or more was considered effective (Int. J. Cancer, 1989, 43:637-44), and the maximum tolerance dose (MTD, maximum dose not causing death, mg/kg) and minimum effective dose (MED, mg/kg) showing effectiveness were obtained, respectively. The therapeutic index was calculated in accordance with the equation: MTD/MED.
(§6) ND means that the test was not performed. The effective dose range means the range of from MED to MTD.

The subject of data set [3] is HCT-15 (P glycoprotein (P-gp) expressing human colon cancer cell line). The data set can be described thus: Anti-cell activity (MTT) against human tumor cell line HCT-15. The conditions noted are these: 72 h, HCT-15 (P-gp expressing), cultured three days, read-out: HCT-15 (GI50 value, ng/mL). The data set is classed as cell-based. As for the experimental part:
as §1, §2

The nature of data set [4]: Solubility in first and second solution for disintegration test (Japanese Pharmacopoeia). The data set is classed as physicochemical. The conditions noted are these: for solubility: thermodynamic from solid. On the procedure:
Solubility of each compound was determined in the first solution for disintegration test according to Japanese Pharmacopoeia (henceforth referred to as the first solution, solution obtained by adding 7 mL of hydrochloric acid and water to 2.00 g of sodium chloride to dissolve sodium chloride and fill up the solution to 1000 mL, pH 1.2) and the second solution for disintegration test according to Japanese Pharmacopoeia (henceforth referred to as the second solution, solution obtained by adding 118 mL of 0.2 mol/L solution of sodium hydroxide to 6.80 g of potassium dihydrogenphosphate, adding water to the mixture to dissolve potassium dihydrogenphosphate and filling up the solution to 1000 mL, pH 6.8).
Each test compound was dissolved in 100% dimethyl sulfoxide (DMSO) at a concentration of 10 mM, and 50 μL of the solution was lyophilized. The lyophilized test compound was added with 250 μL of the first solution or second solution, and the mixture was stored at room temperature for 12 hours or longer under light shielding, and filtered (0.7 μm). The filtrate was taken in a volume of 90 μL, and added with 50% DMSO (90 μL) to obtain a two-fold diluted solubility sample. The two-fold dilution solubility sample was taken in a volume of 20 μL, and added with 50% DMSO (180 μL) to obtain a […] diluted solubility sample. Solubility of each test sample was determined by quantifying the test compound in the resulting diluted solubility test samples using high-performance liquid chromatography.

For data set [5], the system named is HCT116 (human colon cancer cell line). The data set can be described thus: Anti-cell activity (MTT) against human tumor cell line HCT116. The conditions noted are these: HCT-116, 72 h, HCT116, cultured three days, read-out: HCT116 (GI50 value, ng/mL). The data set is classed as cell-based. As for the experimental part:
as §1, §2

Data set [6] deals with M5076 (histiocytoma expressing P-gp). The data set can be described thus: Antitumor effect in mice subcutaneously transplanted with M5076. The class given is in vivo, Mice (C57BL/6). The conditions noted are these: for Therapeutic index: MTD/MED; for Effective dose range: range from MED to MTD, antitumor effect of 58% or more considered effective.
Text: as §3, §4, §5, §6

[7] abbreviates: aqueous buffer, second solution for disintegration test, pH 6.8, room temperature, 12 hours or longer, read-out: Solubility (μg/mL) pH 6.8.
[8] abbreviates: simulated gastric fluid, first solution for disintegration test, pH 1.2, room temperature, 12 hours or longer, read-out: Solubility (μg/mL) pH 1.2.
[9] abbreviates: first solution for disintegration test, pH 1.2, room temperature, 12 hours or longer.
Where [10] appears, read: second solution for disintegration test, pH 6.8, room temperature, 12 hours or longer.

The text below walks through data of patent publication US20090186868A1, “Taxane Compound Having Azetidine Ring Structure” (Daiichi Sankyo Company Limited, priority 2005, published 2009).

In brackets after ≈: the same amount, converted by molar mass. Read-outs that look alike come from different tables or passages of the source.

On to `CC(=O)O[C@@]12CO[C@@H]1CC[C@@]1(C)[C@@H]3O[C@H](CN4CCC4)O[C@@H]3C3=C(C)[C@@H](OC(=O)[C@H](O)[C@@H](NC(=O)OC(C)(C)C)c4ccccn4)C[C@@](O)([C@@H](OC(=O)c4ccccc4)[C@@H]12)C3(C)C` [Example 1, (1S,2S,3R,4S,5R,8R,9S,10R,13S)-4-(Acetoxy)-9,10-[(1S)-2-(azetidino)ethylidenedioxy]-2-(benzoyloxy)-5,20-epoxy-1-hydroxytax-11-en-13-yl (2R,3S)-3-(tert-butoxycarbonylamino)-2-hydroxy-3-(2-pyridyl)propionate], for which the GI50 amounted to 0.19 ng/mL (≈ 0.000217 µM) in data set [1], 1.14 ng/mL (≈ 0.0013 µM) in data set [3] and 0.244 ng/mL (≈ 0.000279 µM) in data set [5]. The molecule also registered a Therapeutic index in data set [2] (B16 Melanoma BL6, po) of 2.9. Moreover, the solubility in data set [4] (setting [7]) was 170 µg/mL (≈ 194 µM); in data set [4] (setting [8]) it was 1200 µg/mL (≈ 1370 µM).

In the case of `CC(=O)O[C@@]12CO[C@@H]1CC[C@@]1(C)[C@@H]3O[C@H](CN4CCC4)O[C@@H]3C3=C(C)[C@@H](OC(=O)[C@H](O)[C@@H](NC(=O)OC(C)(C)C)c4ncccc4F)C[C@@](O)([C@@H](OC(=O)c4ccccc4)[C@@H]12)C3(C)C` [Example 2, (1S,2S,3R,4S,5R,8R,9S,10R,13S)-4-(Acetoxy)-9,10-[(1S)-2-(azetidino)ethylidenedioxy]-2-(benzoyloxy)-5,20-epoxy-1-hydroxytax-11-en-13-yl (2R,3S)-3-(tert-butoxycarbonylamino)-3-(3-fluoro-2-pyridyl)-2-hydroxypropionate], the values for the GI50 in data set [1], in data set [3] and in data set [5] were 0.606 ng/mL (≈ 0.000678 µM), 2.31 ng/mL (≈ 0.00258 µM) and 0.669 ng/mL (≈ 0.000748 µM), respectively. The Therapeutic index in data set [2] (B16 Melanoma BL6, iv) worked out at 2.9; in data set [2] (B16 Melanoma BL6, po), 2.9; in data set [6] (M5076, iv), 1.0; in data set [6] (M5076, po), 2.0. Further, the solubility in data set [4] (setting [7]) is 170 µg/mL (≈ 190 µM); in data set [4] (setting [8]), 1100 µg/mL (≈ 1230 µM). In addition, the “Effective dose range” value in data set [6] (M5076, iv) was 14.7 mg/kg; in data set [6] (M5076, po), 13.7 to 28 mg/kg.

On to `CC(=O)O[C@@]12CO[C@@H]1CC[C@@]1(C)[C@@H]3O[C@H](CN4CC(C)(O)C4)O[C@@H]3C3=C(C)[C@@H](OC(=O)[C@H](O)[C@@H](NC(=O)OC(C)(C)C)c4ccccn4)C[C@@](O)([C@@H](OC(=O)c4ccccc4)[C@@H]12)C3(C)C` [Example 11, (1S,2S,3R,4S,5R,8R,9S,10R,13S)-4-(Acetoxy)-2-(benzoyloxy)-5,20-epoxy-1-hydroxy-9,10-[(1S)-2-(3-hydroxy-3-methylazetidino)ethylidenedioxy]tax-11-en-13-yl (2R,3S)-3-(tert-butoxycarbonylamino)-2-hydroxy-3-(2-pyridyl)propionate], for which the GI50 was found to be 0.109 ng/mL (≈ 0.00012 µM) in data set [1], 4.21 ng/mL (≈ 0.00465 µM) in data set [3] and 0.173 ng/mL (≈ 0.000191 µM) in data set [5]. The molecule further displayed a Therapeutic index in data set [2] (B16 Melanoma BL6, po) of 5.9. The solubility in data set [4] (setting [7]) is 170 µg/mL (≈ 188 µM); in data set [4] (setting [8]), 1300 µg/mL (≈ 1430 µM).

For `CC[C@H](NC(=O)OC(C)(C)C)[C@@H](O)C(=O)O[C@H]1C[C@@]2(O)[C@@H](OC(=O)c3ccccc3)[C@H]3[C@@](C)(CC[C@H]4OC[C@]43OC(C)=O)[C@@H]3O[C@H](CN4CCC4)O[C@@H]3C(=C1C)C2(C)C` [Example 37, (1S,2S,3R,4S,5R,8R,9S,10R,13S)-4-(Acetoxy)-9,10-[(1S)-2-(azetidino)ethylidenedioxy]-2-(benzoyloxy)-5,20-epoxy-1-hydroxy-tax-11-en-13-yl (2R,3S)-3-(tert-butoxycarbonylamino)-2-hydroxypentanoate], the Therapeutic index in data set [2] (B16 Melanoma BL6, iv) turned out to be 4.2; in data set [2] (B16 Melanoma BL6, po), 2.0; in data set [6] (M5076, iv), 1.4. Further, the “Effective dose range” value lay in the range of 7.21 to 30.0 mg/kg in data set [2] (B16 Melanoma BL6, iv); 14.7 to 30.0 mg/kg in data set [2] (B16 Melanoma BL6, po); 14.7 to 21.0 mg/kg in data set [6] (M5076, iv). Moreover, in data set [4] (setting [9]), the “Solubility (μg/mL) pH 1.2” value is listed as 670 μg/mL. Besides, the “Solubility (μg/mL) pH 6.8” value in data set [4] (setting [10]) was found to be 210 μg/mL.

Take `CC(=O)O[C@@]12CO[C@@H]1CC[C@@]1(C)[C@@H]3O[C@H](CN4CCC4)O[C@@H]3C3=C(C)[C@@H](OC(=O)[C@H](O)[C@@H](NC(=O)OC(C)(C)C)c4ncco4)C[C@@](O)([C@@H](OC(=O)c4ccccc4)[C@@H]12)C3(C)C` [Example 41, (1S,2S,3R,4S,5R,8R,9S,10R,13S)-4-(Acetoxy)-9,10-[(1S)-2-(azetidino)ethylidenedioxy]-2-(benzoyloxy)-5,20-epoxy-1-hydroxytax-11-en-13-yl (2R,3R)-3-(tert-butoxycarbonylamino)-2-hydroxy-3-(2-oxazolyl)propionate]: the Therapeutic index came out at 4.2 in data set [2] (B16 Melanoma BL6, iv); 2.9 in data set [2] (B16 Melanoma BL6, po); 1.4 in data set [6] (M5076, iv). Also, the “Effective dose range” value in data set [2] (B16 Melanoma BL6, iv) was in the range of 5.29 to 22.0 mg/kg; in data set [2] (B16 Melanoma BL6, po) it was 8.58 to 25.0 mg/kg; in data set [6] (M5076, iv) it was 17.5 to 25.0 mg/kg. For the same molecule, in data set [4] (setting [9]), the “Solubility (μg/mL) pH 1.2” value is recorded as 910 μg/mL. Also, in data set [4] (setting [10]), the “Solubility (μg/mL) pH 6.8” value was determined as 370 μg/mL.

As to `CC(=O)O[C@H]1C(=O)[C@@]2(C)[C@H]([C@H](OC(=O)c3ccccc3)[C@]3(O)C[C@H](OC(=O)[C@H](O)[C@@H](NC(=O)c4ccccc4)c4ccccc4)C(C)=C1C3(C)C)[C@]1(OC(C)=O)CO[C@@H]1C[C@@H]2O` [Paclitaxel, reference compound], the GI50 in data set [1] is 1.87 ng/mL (≈ 0.00219 µM); in data set [3] it was over 100 ng/mL; in data set [5] it was 1.71 ng/mL (≈ 0.002 µM). The solubility is under 4 µg/mL in data set [4] (pH 1.2, simulated gastric fluid) and under 4 µg/mL in data set [4] (pH 6.8, aqueous buffer).
